Laboratory results taken from PMC5048153 (Scientific Reports, 2016).

Tests used:
[1] = tested on: corticosterone injured PC12 cells; assay: Real-time PCR BDNF mRNA level; assay type: cell-based, rat; settings: 200 µM corticosterone and 5 µM drug
rat hippocampus = assay: Cell survival, proliferation and maturation in the rat hippocampus; assay type: in vivo; settings: rats, 21 days
Protocol: The detailed procedures were performed according to the reported literatures.
Wistar rats were used herein. Agomelatine were purchased from Dalian Meilun Biotech Company. […] For cell proliferation study, BrdU (200 mg/kg i.p.) was administered 2 h before perfusion. For cell maturation and survival studies, animals received five injections of BrdU (75 mg/kg, 2 h intervals) the first day of treatment and were killed 21 days later. […] was randomly selected 8 visual fields for statistical analysis.

SD rats = assay: Forced swim test; assay type: in vivo, rat; settings: ig. 32 mg/kg/day, days 2–15
Protocol: The detailed procedures were performed according to our previous studies. Briefly, each SD rat was placed in a vertical Plexiglas cylinder (height 50 cm; diameter 20 cm) containing 18 cm height of water at 25 ± 2 °C and was forced to swim individually for 15 min on1st day. From 2nd day to 15th day, the rats were intragastrically administered compound 6a-1 or control drugs at dosage of 32 mg/kg/day. On the 2nd day and 15th day, 30 minutes after drug treatment, each rat was placed again into water and forced to swim for 6 min. The rat behavior was recorded by a video camera placed directly facing cylinders. The duration of immobility during the last 4 minutes was analyzed by Xeye Animal behavior analysis system (Xeye Aba V3.2). The rat was considered as immobile when its moving speed was less than 20 mm/s. The dosage of is 32 mg/kg every day. The water in the cylinder was changed each trial. After each exposure, animals were partially dried with a towel and returned to their home cages. All tests were performed in a quiet room.

H9C2 cells = assay: Cytotoxicity on H9C2 cells (MTT); assay type: cell-based; settings: Rattus norvegicus, 48 h
Protocol: Human normal hepatic L02 cells, human embryonic kidney cell line 293 cells (HEK293) and Rattus myoblast cell line H9C2 cells were respectively seeded in 96-well plates at a density of 4 × 10^3 cells per well and cultured in the 1640 or DMEM medium, with the supplement of 10% fetal bovine serum, penicillin (100 unit/ml), streptomycin (100 μg/ml) in a humidified incubator with 5% CO2 for 24 h. After adherence, L02, HEK293 and H9C2 cells were exposed to different compounds for another 48 h. The cytotoxicities of the compounds were evaluated by MTT method.

hERG K^+ channel = biological target: T1, hERG K^+ channel (Homo sapiens, UniProt Q12809); assay: hERG K+ channel inhibition (QPatch); assay type: cell-based; settings: hERG-expressing CHO cells, Qpatch 16X assay
T1 construct: expressed in transfected cells
Protocol: In brief, A Chinese hamster ovary (CHO) cell line stably expressing hERG potassium channels were cultured into appropriate cell density. Then cells were automatically prepared for application to chips. Whole-cell recordings were performed using automated QPatch (Sophion) and the data were analyzed using Assay Software provided by Graphpad Prism 5.0.

[2] = tested on: corticosterone injured PC12 cells; assay: Real-time PCR NGF mRNA level; assay type: cell-based, rat; settings: 200 µM corticosterone and 5 µM drug
[3] = tested on: corticosterone injured PC12 cells; assay: Hoechst 33258 staining (apoptosis); assay type: cell-based, rat; settings: 200 µM corticosterone and 5 µM drug
Protocol: To detect apoptotic cells, drug treated cells were stained with the DNA dye Hoechst 33258. Cells with the indicated treatment were fixed with methanol for 10 min at 4 °C before incubation with Hoechst 33258 for 10 min at room temperature. After washes with PBS, the apoptotic cells were mounted onto slides and observed under the fluorescence microscope BX61 (Olympus, Japan). Images were captured using DP71 CCD digital camera (Olympus).

T1 sequence (Q12809 whole entry): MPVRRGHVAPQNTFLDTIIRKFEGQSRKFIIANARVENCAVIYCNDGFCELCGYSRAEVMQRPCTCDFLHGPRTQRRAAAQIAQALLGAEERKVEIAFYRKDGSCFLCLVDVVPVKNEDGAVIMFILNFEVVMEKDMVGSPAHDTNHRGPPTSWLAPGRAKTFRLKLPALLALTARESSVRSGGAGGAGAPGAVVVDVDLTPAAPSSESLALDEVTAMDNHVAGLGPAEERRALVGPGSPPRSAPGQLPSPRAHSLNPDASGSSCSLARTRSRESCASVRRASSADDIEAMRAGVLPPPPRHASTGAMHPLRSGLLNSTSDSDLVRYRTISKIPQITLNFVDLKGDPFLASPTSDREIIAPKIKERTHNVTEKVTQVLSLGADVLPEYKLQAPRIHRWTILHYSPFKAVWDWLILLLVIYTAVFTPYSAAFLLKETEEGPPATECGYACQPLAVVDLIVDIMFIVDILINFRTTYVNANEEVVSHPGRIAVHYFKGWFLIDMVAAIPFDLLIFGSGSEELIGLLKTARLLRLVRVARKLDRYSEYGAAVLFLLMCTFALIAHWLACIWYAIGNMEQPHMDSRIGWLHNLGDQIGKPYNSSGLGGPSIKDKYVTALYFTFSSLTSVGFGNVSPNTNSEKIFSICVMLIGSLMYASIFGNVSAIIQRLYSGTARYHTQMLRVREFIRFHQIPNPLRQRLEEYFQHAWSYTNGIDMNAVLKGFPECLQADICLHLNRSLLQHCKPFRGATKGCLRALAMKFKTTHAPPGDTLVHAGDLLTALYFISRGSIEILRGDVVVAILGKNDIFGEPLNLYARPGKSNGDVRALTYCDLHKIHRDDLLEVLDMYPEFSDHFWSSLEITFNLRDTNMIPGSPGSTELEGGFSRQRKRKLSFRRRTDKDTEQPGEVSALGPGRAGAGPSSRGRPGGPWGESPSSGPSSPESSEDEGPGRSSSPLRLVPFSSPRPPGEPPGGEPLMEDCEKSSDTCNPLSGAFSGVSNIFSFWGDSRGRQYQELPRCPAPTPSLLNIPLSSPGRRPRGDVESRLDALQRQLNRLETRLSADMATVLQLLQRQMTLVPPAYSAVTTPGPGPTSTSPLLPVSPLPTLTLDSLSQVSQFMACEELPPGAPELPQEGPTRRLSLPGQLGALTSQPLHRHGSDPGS

| SMILES | BDNF mRNA level increase compared with corticosterone-injured group [1] [%] | expression of PSA-NCAM compared with vehicle-treated group (rat hippocampus; i.p. 40 mg/kg) | mean immobility time reduced compared to the model group (SD rats) [%] | IC50 (H9C2 cells) [µM] | IC50 (hERG K^+ channel) [µM] | number of BrdU-labeled neuron cells (proliferation) (rat hippocampus; i.p. 40 mg/kg once daily) | number of BrdU-labeled neuron cells (survival) (rat hippocampus; i.p. 40 mg/kg once daily) | number of NeuN cells compared with vehicle-treated group (rat hippocampus; i.p. 40 mg/kg) | number of PSA-NCAM-labeled cells relative to Agomelatine group (rat hippocampus; i.p. 40 mg/kg) | NGF mRNA level [2] | apoptosis of PC12 cells induced by corticosterone [3] |
| --- | --- | --- | --- | --- | --- | --- | --- | --- | --- | --- | --- |
| COc1ccc2cccc(CCNC(C)=O)c2c1 [Agomelatine, reference compound] | 37.2 | reduced the expression of PSA-NCAM | 8.4 | 375 |  |  |  |  |  |  |  |
| COc1ccc2c(c1)C(CCNC(C)=O)=NCC2.O=C(O)C(=O)O [6a-1, N-(2-(7-Methoxy-3,4-dihydroisoquinolin-1-yl)ethyl) acetamide oxalate] | 42.8 | reduced the expression of PSA-NCAM | 62.5 | 455 | > 40 | remarkably increased | remarkably increased | significant (P < 0.001) increase | approximately three-fold decrease | does not change | effectively reversed apoptosis |
